In patent publication US8637511B2, “Aminopyrimidines useful as kinase inhibitors” (Vertex Pharmaceuticals Incorporated, priority 2005, dated 2014):
pIC50, pKi: −log10 of the molar value. Read-outs that look alike come from different tables or passages of the source.

Key:
FLT-3 = target: T1, FLT-3 (Homo sapiens, UniProt P36888); test: FLT-3 inhibition assay, radiometric filter-binding; assay type: biochemical
T1 sequence (P36888 27-993): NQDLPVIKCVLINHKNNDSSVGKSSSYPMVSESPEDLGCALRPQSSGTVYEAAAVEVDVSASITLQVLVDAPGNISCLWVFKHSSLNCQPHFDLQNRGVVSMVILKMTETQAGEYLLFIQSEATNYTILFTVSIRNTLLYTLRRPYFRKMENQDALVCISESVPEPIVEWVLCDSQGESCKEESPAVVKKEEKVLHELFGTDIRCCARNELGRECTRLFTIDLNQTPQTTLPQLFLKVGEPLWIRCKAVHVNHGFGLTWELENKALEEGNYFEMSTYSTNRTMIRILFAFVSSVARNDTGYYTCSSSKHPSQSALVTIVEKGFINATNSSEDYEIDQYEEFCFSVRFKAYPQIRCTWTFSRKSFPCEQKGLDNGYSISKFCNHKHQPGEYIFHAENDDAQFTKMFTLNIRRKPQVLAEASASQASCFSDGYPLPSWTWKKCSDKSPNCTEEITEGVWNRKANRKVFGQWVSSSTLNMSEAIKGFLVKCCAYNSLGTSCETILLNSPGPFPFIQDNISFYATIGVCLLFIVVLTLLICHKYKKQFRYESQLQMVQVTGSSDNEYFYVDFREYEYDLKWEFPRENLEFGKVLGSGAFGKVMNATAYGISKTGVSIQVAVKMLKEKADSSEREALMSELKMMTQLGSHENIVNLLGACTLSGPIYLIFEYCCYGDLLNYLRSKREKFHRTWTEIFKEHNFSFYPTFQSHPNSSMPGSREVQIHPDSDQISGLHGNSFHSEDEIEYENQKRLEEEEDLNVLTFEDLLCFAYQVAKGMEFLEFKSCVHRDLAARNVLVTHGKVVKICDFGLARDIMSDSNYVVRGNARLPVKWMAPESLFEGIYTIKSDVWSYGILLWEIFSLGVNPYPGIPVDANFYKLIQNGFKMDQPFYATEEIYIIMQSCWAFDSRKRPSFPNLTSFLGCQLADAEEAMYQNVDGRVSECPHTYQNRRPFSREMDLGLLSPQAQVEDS

Colo205 cells = test: Analysis of cell proliferation and viability; assay type: cell-based; conditions: Homo sapiens, COLO 205, Colo205 cells, read-out: IC50 value

SMILES | pKi (FLT-3) | pIC50 (Colo205 cells; incubated for 96 hours) | pIC50 (Colo205 cells; incubated for 72 hours) | pKi (FLT-3; read-out: FLT-3 Ki value)
CCOC1CN(c2cc(Nc3cc(C)[nH]n3)nc(Sc3ccc(NC(=O)c4ccccc4Cl)cc3)n2)C1 [Compound 37] | 6.82 to 7.30 | 6.00 to 7.30 | – | –
Cc1cc(Nc2cc(N3CC(OC(C)C)C3)nc(Sc3ccc(NC(=O)c4ccccc4Cl)cc3)n2)n[nH]1 [Compound 38] | 6.00 to 6.82 | ≥ 7.30 | – | –
Cc1cc(Nc2cc(N3CC(C)(O)C3)nc(Sc3ccc(NC(=O)c4ccccc4Cl)cc3)n2)[nH]n1 [Compound 50] | ≥ 7.30 | ≥ 7.30 | ≥ 7.52 | –
COC1(C)CN(c2cc(Nc3cc(C)n[nH]3)nc(Sc3ccc(NC(=O)c4ccccc4Cl)cc3)n2)C1 [Compound 51] | 6.82 to 7.30 | ≥ 7.30 | ≥ 7.52 | –
Cc1cc(Nc2cc(N3CCC3)nc(Sc3ccc(NC(=O)Cc4ccccc4Cl)cc3)n2)[nH]n1 [Compound 57] | – | 6.00 to 7.30 | – | 6.00 to 6.82
Cc1cc(Nc2cc(N3CCC3)nc(Sc3ccc(NC(=O)c4cnccc4C(F)(F)F)cc3)n2)[nH]n1 [Compound 59] | 6.00 to 6.82 | 6.00 to 7.30 | < 6.70 | –
CCC(=O)Nc1ccc(Sc2nc(Nc3cc(C)n[nH]3)cc(N3CC(OC(C)(C)C)C3)n2)cc1 [Compound 67] | – | 6.00 to 7.30 | – | 6.82 to 7.30
CCC(=O)Nc1ccc(Sc2nc(Nc3cc(C)n[nH]3)cc(N3CC(N4CCOCC4)C3)n2)cc1 [Compound 68] | – | 6.00 to 7.30 | – | 6.82 to 7.30
CC(C)(C)c1cc(Nc2cc(N3CCC3)nc(Sc3ccc(NC(=O)c4ccccc4Cl)cc3)n2)n[nH]1 [Compound 69] | 6.00 to 6.82 | – | – | –
COCc1cc(Nc2cc(N3CCC3)nc(Sc3ccc(NC(=O)c4ccccc4Cl)cc3)n2)n[nH]1 [Compound 82] | 6.00 to 6.82 | – | – | –
Cc1cc(Nc2cc(N3CCC3)nc(Sc3ccc(NC(=O)c4ccc(-c5ccccc5)cc4Cl)cc3)n2)[nH]n1 [Compound 83] | – | – | 6.70 to 7.52 | 6.00 to 6.82
CCC(=O)Nc1ccc(Sc2nc(Nc3cc(C)n[nH]3)cc(N3CC(C)(N4CCOCC4)C3)n2)cc1 [Compound 88] | ≥ 7.30 | ≥ 7.30 | – | –
CCC(=O)Nc1ccc(Sc2nc(Nc3cc(C)n[nH]3)cc(N3CC(C)(N4CCCC4)C3)n2)cc1 [Compound 89] | – | ≥ 7.30 | ≥ 7.52 | ≥ 7.30
CCC(=O)Nc1ccc(Sc2nc(Nc3cc(C)n[nH]3)cc(N3CC(OC)(C(C)(C)C)C3)n2)cc1 [Compound 90] | ≥ 7.30 | ≥ 7.30 | – | –
CCC(=O)Nc1ccc(Sc2nc(Nc3cc(C)n[nH]3)cc(N3CC4(C3)OCC4(C)C)n2)cc1 [Compound 92] | – | ≥ 7.30 | – | ≥ 7.30
Cc1cc(Nc2cc(N3CC(O)(C4CC4)C3)nc(Sc3ccc(NC(=O)C4CC4)c(F)c3)n2)[nH]n1 [Compound 109] | – | 6.00 to 7.30 | – | ≥ 7.30
Cc1cc(Nc2cc(N3CC(OC(=O)CN(C)C)(C4CC4)C3)nc(Sc3ccc(NC(=O)C4CC4)cc3)n2)n[nH]1 [Compound 119] | – | – | 6.70 to 7.52 | ≥ 7.30
Cc1cc(Nc2cc(N3CC(F)(C4CC4)C3)nc(Oc3ccc(NC(=O)CC(F)(F)F)cc3)n2)[nH]n1 [Compound 144] | ≥ 7.30 | – | ≥ 7.52 | –

SMILES | pKi (FLT-3) | pIC50 (Colo205 cells; incubated for 96 hours) | pIC50 (Colo205 cells; incubated for 72 hours) | pKi (FLT-3; read-out: FLT-3 Ki value)
Cc1cc(Nc2cc(N3CC(F)(C4CC4)C3)nc(Sc3ccc(NS(C)(=O)=O)cc3)n2)[nH]n1 [Compound 151] | ≥ 7.30 | – | 6.70 to 7.52 | –
Cc1cc(Nc2cc(N3CC(F)(C4CC4)C3)nc(Sc3ccc(NC(=O)CN(C)C)cc3)n2)[nH]n1 [Compound 152] | 6.00 to 6.82 | – | 6.70 to 7.52 | –
Cc1cc(Nc2cc(N3CC(O)(C4CC4)C3)nc(Sc3ccc4nc(C(F)(F)F)n(C)c4c3)n2)[nH]n1 [Compound 155] | 6.82 to 7.30 | ≥ 7.30 | – | –
Cc1cc(Nc2cc(N3CC(C)(F)C3)nc(Sc3ccc(NC(=O)CC(F)(F)F)cc3)n2)n[nH]1 [Compound 168, N-(4-(4-(5-methyl-1H-pyrazol-3-ylamino)-6-(3-fluoro-3-methylazetidin-1-yl)pyrimidin-2-ylthio)phenyl)-3,3,3-trifluoropropanamide] | ≥ 7.30 | – | 6.70 to 7.52 | –
Cc1cc(Nc2cc(N3CC(C)(C#N)C3)nc(Sc3ccc(NC(=O)CC(F)(F)F)cc3)n2)[nH]n1 [Compound 169] | ≥ 7.30 | – | 6.70 to 7.52 | –
Cc1cc(Nc2cc(N3CC(O)(C4CC4)C3)nc(Sc3cc(F)c4nc(C)ccc4c3)n2)[nH]n1 [Compound 172] | 6.82 to 7.30 | – | ≥ 7.52 | –
Cc1cc(Nc2cc(N3CC(N4CCOCC4)C3)nc(Sc3ccc4c(c3)CN(CC(F)(F)F)C4=O)n2)[nH]n1 [Compound 173] | ≥ 7.30 | – | 6.70 to 7.52 | –
Cc1cc(Nc2cc(N3CC(N4CCOCC4)C3)nc(Sc3ccc4nc(CC(F)(F)F)n(C)c4c3)n2)[nH]n1 [Compound 177] | 6.00 to 6.82 | – | 6.70 to 7.52 | –
Cc1cc(Nc2nc(Sc3ccc(NC(=O)CC(F)(F)F)cc3)nc(N3CC(F)(C4CC4)C3)c2F)[nH]n1 [Compound 178] | 6.00 to 6.82 | – | 6.70 to 7.52 | –
Cc1cnc(Nc2cc(N3CC(F)(C4CC4)C3)nc(Oc3ccc(NC(=O)CC(F)(F)F)cc3)n2)s1 [Compound 181] | ≥ 7.30 | – | 6.70 to 7.52 | –
Cc1cc(Nc2cc(N3CC(C)(C(C)(C)F)C3)nc(Sc3ccc(NC(=O)CC(F)(F)F)cc3)n2)[nH]n1 [Compound 183] | ≥ 7.30 | – | ≥ 7.52 | –
CC(C)=C1CN(c2cc(Nc3cc(C)n[nH]3)nc(Sc3ccc(NC(=O)CC(F)(F)F)cc3)n2)C1 [Compound 184] | 6.82 to 7.30 | – | 6.70 to 7.52 | –
Cc1cc(Nc2cc(N3CC(N4CC[C@H](F)C4)C3)nc(Sc3ccc(NC(=O)CC(F)(F)F)cc3)n2)[nH]n1 [Compound 185] | 6.82 to 7.30 | – | ≥ 7.52 | –
Cc1cc(Nc2cc(N3CC(O)(C4CC4)C3)nc(Sc3ccc4nc(C(F)(F)F)ccc4c3)n2)[nH]n1 [Compound 186] | 6.82 to 7.30 | – | 6.70 to 7.52 | –
Cc1cc(Nc2cc(N3CC(F)(C4CC4)C3)nc(Sc3ccc(NC(=O)C4(C)CC4)cc3)n2)[nH]n1 [Compound 203] | – | – | 6.70 to 7.52 | 6.00 to 6.82
Cc1cc(Nc2cc(N3CC(N4CCCC4)C3)nc(Sc3ccc(NC(=O)CC(F)(F)F)cc3)n2)[nH]n1 [Compound 204] | 6.82 to 7.30 | – | ≥ 7.52 | –
Cc1cc(Nc2cc(N3CC(F)(C4CC4)C3)nc(Sc3ccc(C(=O)NCC(F)(F)F)cc3)n2)[nH]n1 [Compound 205] | 6.82 to 7.30 | – | ≥ 7.52 | –
Cc1cc(Nc2cc(N3CC(F)(C4CC4)C3)nc(Sc3cnc4ccccc4c3)n2)[nH]n1 [Compound 206] | ≥ 7.30 | – | < 6.70 | –
